Source: ChEMBL document CHEMBL3885861, “Open TG-GATES”

Organism: Rattus norvegicus
Assay: Open TG-GATES - Regimen: Single
Type: toxicity, organism-based, Sprague-Dawley
Set-up: regimen Single, gender Male, age 6 weeks
Conditions: in vivo, po, 0 mg/kg, route gavage, dose level Control; for APTT / Bas / Eos / Fbg / Hb / Ht / Lym / MCH / MCHC / MCV / Mono / Neu / PT / Plat / RBC / Ret / WBC: tissue Blood; for KIDNEY_L / KIDNEY_R / KIDNEY_TOTAL: tissue Kidney; for LIVER: tissue Liver; for A/G / ALP / ALT / AST / BUN / CRE / Ca / Cl / DBIL / GLC / IP / K / LDH / Na / PL / RALB / TBIL / TC / TG / TP / gamma-GTP: tissue Plasma

Work on CCOC(=O)CCC(=O)O[C@H]1[C@H](O[C@@H]2[C@@H](C)[C@H](O[C@H]3C[C@@](C)(OC)[C@@H](O)[C@H](C)O3)[C@@H](C)C(=O)O[C@H](CC)[C@@](C)(O)[C@H](O)[C@@H](C)C(=O)[C@H](C)C[C@@]2(C)O)O[C@H](C)C[C@@H]1N(C)C [ERYTHROMYCIN ETHYLSUCCINATE] yielded a TERMINAL_BW (3 h) of 215 g, an APTT (3 h) of 23.2 s and a Bas (3 h) of 0%. The Eos (3 h) was 1%, the Fbg (3 h) was 292.2 mg/dL and the Hb (3 h) was 13.2 g/dL. For the same molecule, the Ht (3 h) was 40.2%, the Lym (3 h) was 81.2% and the MCH (3 h) was 20.8 pg. For the same molecule, the MCHC (3 h) was 32.9%, the MCV (3 h) was 63.2 fL and the Mono (3 h) was 2%. For the same molecule, the Neu (3 h) was 15%, the PT (3 h) was 16.3 s and the Plat (3 h) was 112.7 x10_4/uL. For the same molecule, the RBC (3 h) was 635.6 x10_4/ul, the Ret (3 h) was 7.9% and the WBC (3 h) was 75.2 x10_2/uL. It also gave a KIDNEY_L (3 h) of 0.9 g, a KIDNEY_R (3 h) of 0.9 g and a KIDNEY_TOTAL (3 h) of 1.8 g. The LIVER (3 h) was 9.7 g, the A/G (3 h) was 1.2 and the ALP (3 h) was 1728.4 IU/L. For the same molecule, the ALT (3 h) was 40.6 IU/L, the AST (3 h) was 76.6 IU/L and the BUN (3 h) was 14.6 mg/dL. For the same molecule, the CRE (3 h) was 0.2 mg/dL, the Ca (3 h) was 10.4 mg/dL and the Cl (3 h) was 103.2 meq/L. The DBIL (3 h) was 0 mg/dL, the GLC (3 h) was 188.2 mg/dL and the IP (3 h) was 8.3 mg/dL. It also gave a K (3 h) of 3.9 meq/L, an LDH (3 h) of 159.2 IU/L and a Na (3 h) of 139.4 meq/L. It also gave a PL (3 h) of 140 mg/dL, an RALB (3 h) of 2.9 g/dL and a TBIL (3 h) of 0.012 mg/dL. For the same molecule, the TC (3 h) was 84.8 mg/dL, the TG (3 h) was 55.4 mg/dL and the TP (3 h) was 5.4 g/dL. It also gave a gamma-GTP (3 h) of 1 IU/L, a TERMINAL_BW (6 h) of 212.6 g and an APTT (6 h) of 22.9 s. It also gave a Bas (6 h) of 0%, an Eos (6 h) of 0.6% and a Fbg (6 h) of 321.8 mg/dL. The Hb (6 h) was 13.8 g/dL, the Ht (6 h) was 42.2% and the Lym (6 h) was 75.8%. It also gave an MCH (6 h) of 21.3 pg, an MCHC (6 h) of 32.8% and an MCV (6 h) of 65 fL. For the same molecule, the Mono (6 h) was 2.4%, the Neu (6 h) was 20.2% and the PT (6 h) was 15.8 s. It also gave a Plat (6 h) of 121 x10_4/uL, an RBC (6 h) of 651 x10_4/ul and a Ret (6 h) of 7.6%. For the same molecule, the WBC (6 h) was 111.5 x10_2/uL, the KIDNEY_L (6 h) was 0.9 g and the KIDNEY_R (6 h) was 0.9 g. For the same molecule, the KIDNEY_TOTAL (6 h) was 1.9 g, the LIVER (6 h) was 9.3 g and the A/G (6 h) was 1.2. For the same molecule, the ALP (6 h) was 1491 IU/L, the ALT (6 h) was 37.4 IU/L and the AST (6 h) was 70.6 IU/L. The BUN (6 h) was 9.6 mg/dL, the CRE (6 h) was 0.2 mg/dL and the Ca (6 h) was 10.3 mg/dL. It also gave a Cl (6 h) of 103.4 meq/L, a DBIL (6 h) of 0.002 mg/dL and a GLC (6 h) of 190.6 mg/dL. It also gave an IP (6 h) of 8.9 mg/dL, a K (6 h) of 4.1 meq/L and an LDH (6 h) of 138 IU/L. It also gave a Na (6 h) of 139.6 meq/L, a PL (6 h) of 139.8 mg/dL and an RALB (6 h) of 3 g/dL. For the same molecule, the TBIL (6 h) was 0.02 mg/dL, the TC (6 h) was 78.8 mg/dL and the TG (6 h) was 67.6 mg/dL. It also gave a TP (6 h) of 5.5 g/dL, a gamma-GTP (6 h) of 1.2 IU/L and a TERMINAL_BW (9 h) of 212 g. The APTT (9 h) was 22.4 s, the Bas (9 h) was 0% and the Eos (9 h) was 0.6%. It also gave a Fbg (9 h) of 319.6 mg/dL, a Hb (9 h) of 13 g/dL and a Ht (9 h) of 39.6%. The Lym (9 h) was 81.2%, the MCH (9 h) was 20.4 pg and the MCHC (9 h) was 32.8%. For the same molecule, the MCV (9 h) was 62.2 fL, the Mono (9 h) was 1.8% and the Neu (9 h) was 15.4%. For the same molecule, the PT (9 h) was 15.9 s, the Plat (9 h) was 118.3 x10_4/uL and the RBC (9 h) was 636.4 x10_4/ul. The Ret (9 h) was 7.4%, the WBC (9 h) was 106.6 x10_2/uL and the KIDNEY_L (9 h) was 1 g. It also gave a KIDNEY_R (9 h) of 1 g, a KIDNEY_TOTAL (9 h) of 1.9 g and an LIVER (9 h) of 9 g. It also gave an A/G (9 h) of 1.2, an ALP (9 h) of 1414 IU/L and an ALT (9 h) of 38.4 IU/L. For the same molecule, the AST (9 h) was 69.8 IU/L, the BUN (9 h) was 10.8 mg/dL and the CRE (9 h) was 0.2 mg/dL. For the same molecule, the Ca (9 h) was 10.5 mg/dL, the Cl (9 h) was 103.6 meq/L and the DBIL (9 h) was 0 mg/dL. The GLC (9 h) was 190.8 mg/dL, the IP (9 h) was 9.1 mg/dL and the K (9 h) was 4.2 meq/L. For the same molecule, the LDH (9 h) was 161.4 IU/L, the Na (9 h) was 139.2 meq/L and the PL (9 h) was 124.4 mg/dL. For the same molecule, the RALB (9 h) was 2.9 g/dL, the TBIL (9 h) was 0.016 mg/dL and the TC (9 h) was 71.6 mg/dL. For the same molecule, the TG (9 h) was 51.6 mg/dL, the TP (9 h) was 5.4 g/dL and the gamma-GTP (9 h) was 1 IU/L. It also gave a TERMINAL_BW (24 h) of 227 g, an APTT (24 h) of 20.9 s and a Bas (24 h) of 0%. It also gave an Eos (24 h) of 1%, a Fbg (24 h) of 327.8 mg/dL and a Hb (24 h) of 13.5 g/dL. It also gave a Ht (24 h) of 40.3%, a Lym (24 h) of 83.8% and an MCH (24 h) of 21.4 pg. The MCHC (24 h) was 33.4%, the MCV (24 h) was 64.2 fL and the Mono (24 h) was 3.4%. It also gave a Neu (24 h) of 11%, a PT (24 h) of 15.9 s and a Plat (24 h) of 111.9 x10_4/uL. The RBC (24 h) was 629.4 x10_4/ul, the Ret (24 h) was 7.8% and the WBC (24 h) was 111 x10_2/uL. It also gave a KIDNEY_L (24 h) of 1 g, a KIDNEY_R (24 h) of 1 g and a KIDNEY_TOTAL (24 h) of 2 g. It also gave an LIVER (24 h) of 10.5 g, an A/G (24 h) of 1.2 and an ALP (24 h) of 1574.2 IU/L. The ALT (24 h) was 37.6 IU/L, the AST (24 h) was 66.4 IU/L and the BUN (24 h) was 17.8 mg/dL. It also gave a CRE (24 h) of 0.1 mg/dL, a Ca (24 h) of 10.5 mg/dL and a Cl (24 h) of 106.6 meq/L. It also gave a DBIL (24 h) of 0 mg/dL, a GLC (24 h) of 211.4 mg/dL and an IP (24 h) of 8.5 mg/dL. For the same molecule, the K (24 h) was 4.3 meq/L, the LDH (24 h) was 191.4 IU/L and the Na (24 h) was 143 meq/L. For the same molecule, the PL (24 h) was 156.2 mg/dL, the RALB (24 h) was 3 g/dL and the TBIL (24 h) was 0.024 mg/dL. The TC (24 h) was 81.4 mg/dL, the TG (24 h) was 119.4 mg/dL and the TP (24 h) was 5.4 g/dL. The gamma-GTP (24 h) was 1.2 IU/L.
